# Data reported in patent publication US6303596A, “Use of taurolidine for treatment of leukemias” (priority 2000, dated 2001).
# How the values were obtained:
# [1] = test system: Monocytes; assay: TUNEL / propidium iodide flow cytometry, monocytes in PBMC, culture medium; type: cell-based, human
# Method: FIG. 14A and FIG. 14B are terminal deoxytransferase-mediated deoxyuridine-triphosphate-biotin nick end labeling assay (TUNEL) analyses of control cells and taurolidine-treated PBMC, respectively. Cells were incubated with 100 μg/ml taurolidine for six hours and processed for TUNEL analysis as given below. Parallel samples were stained with FITC-conjugated anti-CD14 and propidium iodide (PI) as described below. Ten thousand events were recorded per sample. TUNEL signal (x-axis) is a measure of DNA fragmentation, which FSC (y-axis) is related to cell size. TUNEL-negative lymphocytes are bounded by the rectangle R1, while TUNEL-negative monocytes (CD14 positive cells) are bounded by the rectangle R2. The vertical line indicates demarcation between TUNEL-negative and TUNEL-positive cells. There were minimal numbers of PI-positive cells in the six hour samples (see Table IV).
# (§1) In the second method, DNA fragmentation was detected via TUNEL assay according to the manufacturer's instructions. With this methodology, 2×10^6 cells were fixed with 2% paraformaldehyde, permeabilized with 0.1% Triton X-100/0.1% citrate, incubated at 37° C. with terminal deoxynucleotidyl transferase and FITC-dUTP, rinsed and analyzed by flow cytometry. Enhanced FITC signal indicates apoptosis-specific DNA fragmentation. Gavriali, et al, "Identification of programmed cell death in situ via specific labeling of nuclear DNA fragmentation," J Cell Biol 119:493 (1992). Parallel aliquots of unfixed cells were treated with PI and FITC-conjugated anti-CD14 and analyzed by flow cytometry, in order to identify cells with permeable cell membranes (since PI binds to DNA but is excluded from cells with intact plasma membranes) and also to determine the cell-specificity of the apoptotic signal.
# A Becton-Dickinson FACSCalibur instrument was used for flow cytometric analysis of cells. Assessment of cell diameter (forward scatter; FCS) and granularity (side scatter; SSC).was carried out on unfixed cells. Discrimination between lymphocytes and monocytes was made possible by their characteristic differences in FSC and SSC, and confirmed by staining monocytes with FITC-labeled anti-CD14 antibodies and lymphocytes with a combination of FITC-conjugated anti-CD3 and PE-conjugated anti-CD19. After incubation with taurolidine (with or without concomitant LPS treatment), cells were rinsed twice in phosphate-buffered saline containing 0.1% bovine serum albumin (PBSA) and 1×10^6 cells were resuspended in 0.1 ml PBSA. After 5 μl FITC-conjugated anti-CD14 was added, cells were incubated in the dark on ice for 15 minutes and then centrifuged at 250×g. Cells were resuspended in 500 μl PBSA containing 5 μg/ml PI and subjected to flow cytometry.
# Consequently, TUNEL analysis was performed on PBMC at 3, 6, or 24 hours after treatment with 25 to 100 μg/ml taurolidine. Aliquots of harvested cells were also labeled with FITC-conjugated anti-CD14 antibodies and PI, which allowed identification of monocytes (CD14-positive cells) and cells with damaged cell membranes (PI-positive cells). […] Thus, nearly 75% of the monocytes were TUNEL-positive following treatment with 100 μg/ml taurolidine for six hours. Confirmation that the TUNEL-positive cells were monocytes was obtained by staining with FITC-conjugated anti-CD14.
# ^a Analysis by flow cytometry after staining cells with FITC-conjugated
# anti-CD14 and PI, and processing for TUNEL. Data are mean ± SD of two
# ^b Percent of cells present in the TUNEL-negative region in control
# [2] = test system: REH; assay: LDH release (cell membrane integrity), REH; type: cell-based; conditions: Homo sapiens, 4 h, read-out: LDH (% of total)
# Method: FIGS. 8A and 8B depict cell viability and growth rates for REH cell line following taurolidine treatment, in terms of % trypan blue negative cells and % cell number, respectively. Cells were treated with various concentrations of taurolidine for 4 hours in AIM-V+0.01% BCS. After aliquots were collected for LDH assay, the remainder of the culture was rinsed in HBSS and resuspended in RPMI+10% BCS without taurolidine. Counts of trypan blue-negative cells (FIG. 8A), and total cell number (FIG. 8B), were recorded daily thereafter (with the measurement at Day 1 being made immediately after the 4 hour taurolidine treatment). Conditions were: no treatment (open circles); 25 μg/ml taurolidine (closed circles); 50 μg/ml taurolidine (open squares); 100 μg/ml taurolidine (closed squares); and vehicle alone (closed triangles). Doubling times were determined under each condition, and expressed as a percentage of the rate of doubling of untreated cells. […]
# In these experiments, integrity of cell membranes following taurolidine treatment was assessed by exclusion of trypan blue and by measuring the release of LDH in MM6, K-562, HL-60, and REH cells. […] A parallel aliquot of cells was lysed by three cycles of freeze/thaw and the quantity of LDH released was taken to be 100%. […]
# ^a LDH was measured immediately after four hour taurolidine treatment.
# [3] = test system: K562; assay: TUNEL / propidium iodide flow cytometry, K562; type: cell-based, human; conditions: taurolidine 100 μg/ml or anisomycin 1 μg/ml for 4 h, assayed at 24 hours, mean ± SD
# Method: as §1
# In another study, TUNEL assays were performed on all cell lines 6 hours after cells were initially exposed to taurolidine (cells were treated for 4 hours, rinsed, and then incubated for 2 more hours before TUNEL assay was performed).
# . Taurolidine and anisomycin induced apoptosis in MM6, HL-60, and Jurkat cells (Table VIII). MM6 and HL-60 cells were similarly effected, with >80% TUNEL-positive cells after 6 hours. Jurkat cells were less sensitive, with approximately 50% of cells induced to undergo apoptosis after taurolidine treatment. After 6 hours, 73% of anisomycin-treated REH cells were apoptotic, with less than 20% of taurolidine-treated REH cells being TUNEL-positive. However, assay of cells 24 hours after
# ^a Analysis by flow cytometry after staining cells with propidium
# iodide and processing for TUNEL.
# Data are percent of total cell-size events, and are expressed as mean ±
# Cells were treated for 4 hours with taurolidine (100 μg/ml) or
# anisomycin (1 μg/ml), and then assayed at 6 hours.
# Data are percent of total cell-sized events, and are expressed as mean ±
# anisomycin (1 μg/ml), and then assayed at 24 hours.
smiles,measurement,setting,value
"O=S1(=O)CCN(CN2CCS(=O)(=O)NC2)CN1 [taurolidine, 4,4'-methylenebis(perhydro-1,2,4-thiadiazin 1,1-dioxide)]",TUNEL-positive (apoptotic) monocytes,"[1]; 100 μg/ml taurolidine, 6 h, culture medium, 360 min",approximately 75%
same,induction of apoptosis at lower doses,"[1]; 25 and 50 μg/ml taurolidine, versus 100 μg/ml",lower levels of induction of apoptosis
same,cytotoxicity at 100 µg/mL,"[1]; Homo sapiens, Monocyte, 100 μg/ml taurolidine, 6 h, culture medium, read-out: TUNEL-positive (apoptotic) monocytes",~75%
same,viability at 25 µg/mL,"[1]; Homo sapiens, Monocyte, monocytes, 25 μg/ml, 6 h, percent of control, read-out: % TUNEL-Negative",88.3 ± 2.7%
same,viability at 50 µg/mL,"[1]; Homo sapiens, Monocyte, monocytes, 50 μg/ml, 6 h, percent of control, read-out: % TUNEL-Negative",67.8 ± 18%
same,viability at 100 µg/mL,"[1]; Homo sapiens, Monocyte, monocytes, 100 μg/ml, 6 h, percent of control, read-out: % TUNEL-Negative",25.1 ± 11.8%
same,onset of apoptosis after treatment,[1]; monocytes,detectable within four to six hours
same,cytotoxicity at 50 µg/mL,[2]; 50 μg/ml,6%
same,cytotoxicity at 100 µg/mL,[2]; 100 μg/ml,5%
same,% TUNEL-positive,[3],approximately 20%
